Source: paper PMC5773950 (British Journal of Pharmacology, 2018)
Like-named read-outs stand apart in the source and are kept apart here. Marks after values point to notes of the source that are not given here.

Legend:
[1] = mouse; cited from earlier work
[2] = target: T1, 5‐HT1A receptor (Homo sapiens, UniProt P08908); assay: biochemical; format: binding
T1 sequence (P08908 1-422): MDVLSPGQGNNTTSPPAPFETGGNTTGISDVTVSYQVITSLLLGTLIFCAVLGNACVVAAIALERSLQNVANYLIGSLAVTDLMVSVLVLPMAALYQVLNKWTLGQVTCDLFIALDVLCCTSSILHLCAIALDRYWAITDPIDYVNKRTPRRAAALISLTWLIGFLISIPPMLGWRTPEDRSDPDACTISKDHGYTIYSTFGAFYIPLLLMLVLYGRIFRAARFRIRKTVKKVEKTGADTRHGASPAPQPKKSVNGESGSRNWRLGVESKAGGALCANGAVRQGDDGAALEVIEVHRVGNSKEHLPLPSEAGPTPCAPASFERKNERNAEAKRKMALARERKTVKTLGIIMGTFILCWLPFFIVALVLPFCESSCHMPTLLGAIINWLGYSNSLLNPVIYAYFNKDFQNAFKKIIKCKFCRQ

[3] = target: human DAT (Homo sapiens, UniProt Q01959); assay: cell-based
[4] = human
[5] = target: T2, human SERT (Homo sapiens, UniProt P31645); assay: cell-based
[6] = human; remark: listed apart in the source
[7] = target: T3, human NET (Homo sapiens, UniProt P23975); assay: cell-based; format: cell-based
[8] = human, in vivo
[9] = target: 5‐HT2A receptor (Homo sapiens, UniProt P28223); assay: biochemical; format: binding
[10] = in vivo
[11] = in vivo; cited from earlier work
[12] = target: T2, human SERT; assay: Transporter-mediated 5-HT release from preloaded HEK 293 cells; format: cell-based; details: 100 μM, 15 min, compared with citalopram (negative control)
[13] = target: T3, human NET; assay: Transporter-mediated noradrenaline release from preloaded HEK 293 cells; format: cell-based; details: 100 μM, 45 min, compared with nisoxetine (negative control)
[14] = target: T4, 5‐HT2C receptor (Homo sapiens, UniProt P28335); assay: biochemical; format: binding
T4 sequence (P28335 33-458): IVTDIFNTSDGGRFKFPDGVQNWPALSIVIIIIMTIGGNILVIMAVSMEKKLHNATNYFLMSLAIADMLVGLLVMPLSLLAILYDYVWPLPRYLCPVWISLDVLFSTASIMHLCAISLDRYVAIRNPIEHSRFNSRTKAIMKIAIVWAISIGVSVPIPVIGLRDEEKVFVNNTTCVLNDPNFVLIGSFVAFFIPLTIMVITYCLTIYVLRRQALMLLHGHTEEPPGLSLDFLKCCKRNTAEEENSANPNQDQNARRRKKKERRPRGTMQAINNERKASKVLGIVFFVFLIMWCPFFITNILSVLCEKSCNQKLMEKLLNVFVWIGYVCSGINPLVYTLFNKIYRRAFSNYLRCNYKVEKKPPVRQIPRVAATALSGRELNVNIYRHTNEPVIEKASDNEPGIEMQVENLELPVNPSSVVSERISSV

[15] = read-out: 5‐HT1A Receptor binding Ki ± SD
[16] = read-out: 5‐HT2A Receptor binding Ki ± SD
[17] = read-out: 5‐HT2C Receptor binding Ki ± SD

Chain of human DAT (Q01959 whole entry): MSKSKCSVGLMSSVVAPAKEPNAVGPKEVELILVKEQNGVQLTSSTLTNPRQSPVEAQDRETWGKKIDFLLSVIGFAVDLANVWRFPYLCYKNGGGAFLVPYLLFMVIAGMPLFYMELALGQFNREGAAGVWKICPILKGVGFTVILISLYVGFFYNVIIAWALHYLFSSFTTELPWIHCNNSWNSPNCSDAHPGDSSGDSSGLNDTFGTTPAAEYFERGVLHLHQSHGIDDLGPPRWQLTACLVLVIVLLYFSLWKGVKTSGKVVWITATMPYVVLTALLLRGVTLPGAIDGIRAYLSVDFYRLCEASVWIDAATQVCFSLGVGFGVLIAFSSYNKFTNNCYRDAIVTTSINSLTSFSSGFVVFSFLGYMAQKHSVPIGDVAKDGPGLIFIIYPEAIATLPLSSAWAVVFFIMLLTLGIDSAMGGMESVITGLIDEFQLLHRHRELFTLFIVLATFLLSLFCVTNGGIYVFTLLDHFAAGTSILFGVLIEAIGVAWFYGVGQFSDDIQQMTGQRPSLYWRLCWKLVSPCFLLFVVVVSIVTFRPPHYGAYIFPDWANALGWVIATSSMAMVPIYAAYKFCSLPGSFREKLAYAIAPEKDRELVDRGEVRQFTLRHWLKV
Chain of 5‐HT2A receptor (P28223 whole entry): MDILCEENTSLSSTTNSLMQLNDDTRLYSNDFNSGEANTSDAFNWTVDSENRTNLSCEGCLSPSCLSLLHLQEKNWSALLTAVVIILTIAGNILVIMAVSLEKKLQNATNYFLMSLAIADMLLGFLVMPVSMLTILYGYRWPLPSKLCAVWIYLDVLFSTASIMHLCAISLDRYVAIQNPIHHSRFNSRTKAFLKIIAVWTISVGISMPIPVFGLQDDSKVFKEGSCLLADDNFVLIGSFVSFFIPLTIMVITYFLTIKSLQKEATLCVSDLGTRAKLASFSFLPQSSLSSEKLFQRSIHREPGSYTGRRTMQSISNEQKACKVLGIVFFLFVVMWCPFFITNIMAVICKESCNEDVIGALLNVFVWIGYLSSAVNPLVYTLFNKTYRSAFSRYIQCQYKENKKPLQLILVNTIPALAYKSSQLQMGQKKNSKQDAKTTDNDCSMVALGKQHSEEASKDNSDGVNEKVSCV
T3 sequence (P23975 whole entry): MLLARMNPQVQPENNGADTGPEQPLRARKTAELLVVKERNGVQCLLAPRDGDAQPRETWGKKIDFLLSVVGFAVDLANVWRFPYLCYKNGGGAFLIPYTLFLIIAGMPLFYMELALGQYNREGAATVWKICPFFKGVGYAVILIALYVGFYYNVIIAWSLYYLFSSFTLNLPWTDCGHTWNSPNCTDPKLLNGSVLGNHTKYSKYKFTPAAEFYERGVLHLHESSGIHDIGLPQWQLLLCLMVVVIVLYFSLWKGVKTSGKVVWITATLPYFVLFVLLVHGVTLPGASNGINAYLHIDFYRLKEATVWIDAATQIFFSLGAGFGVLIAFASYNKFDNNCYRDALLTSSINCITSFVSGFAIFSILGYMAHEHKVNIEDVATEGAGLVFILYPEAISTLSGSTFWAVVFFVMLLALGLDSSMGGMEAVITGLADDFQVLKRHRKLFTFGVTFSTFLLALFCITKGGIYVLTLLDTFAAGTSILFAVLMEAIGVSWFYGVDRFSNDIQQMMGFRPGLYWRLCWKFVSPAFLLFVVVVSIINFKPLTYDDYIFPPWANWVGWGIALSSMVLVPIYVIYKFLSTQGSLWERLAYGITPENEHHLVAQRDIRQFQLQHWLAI
T2 sequence (P31645 whole entry): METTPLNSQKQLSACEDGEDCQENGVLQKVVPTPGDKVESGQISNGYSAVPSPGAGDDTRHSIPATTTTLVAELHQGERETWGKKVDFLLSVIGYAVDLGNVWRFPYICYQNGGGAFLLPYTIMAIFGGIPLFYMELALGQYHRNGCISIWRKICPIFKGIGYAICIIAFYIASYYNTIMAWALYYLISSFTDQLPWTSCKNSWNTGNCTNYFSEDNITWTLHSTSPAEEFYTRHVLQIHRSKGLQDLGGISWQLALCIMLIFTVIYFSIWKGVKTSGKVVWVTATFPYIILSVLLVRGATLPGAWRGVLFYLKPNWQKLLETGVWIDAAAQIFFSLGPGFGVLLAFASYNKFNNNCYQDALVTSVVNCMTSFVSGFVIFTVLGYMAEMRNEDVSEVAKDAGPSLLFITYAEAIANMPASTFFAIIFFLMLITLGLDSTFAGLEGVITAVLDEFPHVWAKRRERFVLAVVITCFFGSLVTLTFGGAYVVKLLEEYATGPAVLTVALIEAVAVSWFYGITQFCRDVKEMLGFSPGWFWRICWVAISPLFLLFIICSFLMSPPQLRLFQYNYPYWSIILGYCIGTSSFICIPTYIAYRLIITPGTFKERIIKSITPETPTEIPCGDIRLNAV

SMILES	Ki [2] [µM]	IC50 [3] [µM]	Medline database: number of published cases of serotonin syndrome [4]	IC50 [5] [µM]	WHO database: cases of serotonin syndrome, only suspected cause [6]	WHO database: cases of serotonin syndrome, only suspected cause or among others [6]	IC50 [7] [µM]	Ki [9] [µM]	other results
COc1ccc2c3c1O[C@H]1C(=O)CC[C@@]4(O)[C@@H](C2)N(C)CC[C@]314 [Oxycodone]	> 17	> 100	13	> 100	2	101	> 100	> 13	fu,plasma [1]: 0.6; IC50 ([5]; SERT inhibition in vitro IC50): > 100 µM; Cu,plasma [8]: 0.2 µM
COc1cccc(C2(O)CCCCC2CN(C)C)c1 (centres unmarked) [Tramadol]	> 17	100	26		62	647	2.1		Cu,brain ([10]; human): 0.1–4.6 ^j μM; Ctotal,plasma [11]: 0.1–2.5 ^a μM
CNCCC(Oc1ccc(C(F)(F)F)cc1)c1ccccc1 (centres unmarked) [Fluoxetine]			54		181	641			
CC(=O)O[C@H]1C=C[C@H]2[C@H]3Cc4ccc(O)c5c4[C@@]2(CCN3C)[C@H]1O5 [6‐Acetylmorphine, 6‐acetylmorphine]	> 17	> 100		> 100			> 100	> 13	
CNC(C)Cc1ccc2c(c1)OCO2 (centres unmarked) [MDMA, 3,4‐Methylenedioxymethamphetamine]									Transporter-mediated 5-HT release [12]: induced significantly greater 5‐HT and noradrenaline release; Transporter-mediated noradrenaline release [13]: induced significantly greater 5‐HT and noradrenaline release
CN(C)C[C@H]1CCCC[C@]1(O)c1cccc(O)c1 (relative stereo) [O‐desmethyltramadol, O‐desmethyl‐cis‐tramadol]									Cu,brain [10]: 0.1–1.1 ^k μM; Ki [2, 15]: > 17 µM; IC50 ([3]; read-out: DAT IC50 (95% CI)): > 100 µM; IC50 ([7]; read-out: NET IC50 (95% CI)): 6.1 µM; Ki [9, 16]: > 13 µM
CNCC[C@H](Oc1cccc2ccccc12)c1cccs1 [Duloxetine]			20		550	993			
CCC(=O)C(CC(C)N(C)C)(c1ccccc1)c1ccccc1 (centres unmarked) [Methadone]	> 17	> 100	3	0.23	2	93	4.1	0.61 ± 0.03	IC50 ([5]; SERT inhibition in vitro IC50): 0.23 µM; Ki [14]: 2200 ± 300 nM
CN1CC[C@]23c4c5ccc(O)c4O[C@H]2C(=O)CC[C@@]3(O)[C@H]1C5 [Oxymorphone]	> 17	> 100	0	> 100	0	3	> 100	> 13	
CCOC(=O)C1(c2ccccc2)CCN(C)CC1 [Pethidine]			5		6	66			Cu,brain ([10]; human): 0.7–5.4 ^h μM; Cu,plasma [8]: 0.3 to 2.3 µM; estimated maximal plasma concentration at maximal single dose ([8]; im): e Maximal concentration after a single dose of pethidine of 50 mg intramuscularly was 2 μM (Erstad et al., 1997). The drug label indicates threefold higher maximal single doses of 150 mg i.m. resulting in threefold higher estimated concentrations up to 6 μM.; Maximal plasma concentration after a single dose [11]: e Maximal concentration after a single dose of pethidine of 50 mg intramuscularly was 2 μM (Erstad et al., 1997). The drug label indicates threefold higher maximal single doses of 150 mg i.m. resulting in threefold higher estimated concentrations up to 6 μM.
COc1ccc2c(c1)[C@]13CCCC[C@@H]1[C@H](C2)N(C)CC3 [Dextromethorphan]	> 17	> 100	12		7	86	5.8		Cu,brain ([10]; human): 0–0.44 ^d μM
CN1CC[C@]23c4c5ccc(O)c4O[C@H]2[C@@H](O)C=C[C@H]3[C@H]1C5 [Morphine]	> 17		4		1	64		> 13	
CCC(=O)C(C[C@H](C)N(C)C)(c1ccccc1)c1ccccc1 [d(S)‐methadone]									Ki [2, 15]: > 17 µM; IC50 ([3]; read-out: DAT IC50 (95% CI)): > 100 µM; IC50 ([5]; read-out: SERT IC50 (95% CI)): 5.6 µM; IC50 ([7]; read-out: NET IC50 (95% CI)): 69 µM; Ki [14, 17]: 1900 ± 200 nM; Ki [9, 16]: 0.52 ± 0.11 µM
CCC(=O)C(C[C@@H](C)N(C)C)(c1ccccc1)c1ccccc1 [l(R)‐methadone]									Ki [2, 15]: > 17 µM; IC50 ([3]; read-out: DAT IC50 (95% CI)): > 100 µM; IC50 ([5]; read-out: SERT IC50 (95% CI)): 0.28 µM; IC50 ([7]; read-out: NET IC50 (95% CI)): 2.5 µM; Ki [14, 17]: 2600 ± 300 nM; Ki [9, 16]: 0.72 ± 0.61 µM
COc1ccc2c3c1O[C@H]1[C@@H](O)C=C[C@H]4[C@@H](C2)N(C)CC[C@@]341 [Codeine]	> 17	> 100	0	> 100	0	32	> 100	> 13	
CC(=O)Oc1ccc2c3c1O[C@H]1[C@@H](OC(C)=O)C=C[C@H]4[C@@H](C2)N(C)CC[C@@]341 [Heroin, diacetylmorphine]	> 17	> 100		> 100			> 100	> 13	
COc1ccc(C(CN(C)C)C2(O)CCCCC2)cc1 (centres unmarked) [Venlafaxine]	> 17		75		240	859			Ki [14]: > 15000 nM
CN(C)CCCC1(c2ccc(F)cc2)OCc2cc(C#N)ccc21 (centres unmarked) [Citalopram]			57		178	777			
CC[C@@H](c1cccc(O)c1)[C@@H](C)CN(C)C [Tapentadol]	> 17	78	1	3.3	42	115	1.3	6.3 ± 0.2	Cu,brain ([10]; human): 0.2–3.5 ^l μM; SERT/NET ratio (95% CI) [5]: 0.39 (0.21–0.70); fold more potent inhibitor of the NET versus SERT [7]: 2.6 fold; Cu,plasma [8]: 0.1 to 1.5 µM; Ki [14]: 12000 ± 3200 nM; Ctotal,plasma [11]: 0.1 to 1.9 µM
COc1ccc2c3c1O[C@H]1C(=O)CC[C@H]4[C@@H](C2)N(C)CC[C@]314 [Hydrocodone]	> 17	> 100	2	> 100	0	6	> 100	> 13	
COc1ccc2c3c1O[C@H]1[C@@H](O)CC[C@H]4[C@@H](C2)N(C)CC[C@@]341 [Dihydrocodeine]	> 17	> 100	0	> 100	0	4	> 100	> 13	
